According to patent publication US9180111B2, “Reduction in complement activation and inflammation during tissue injury by carotenoids, carotenoid analogs, or derivatives thereof” (Cardax Pharma, Inc., priority 2005, dated 2015):

System: CRP
Assay: CRP deposition in heart tissue by indirect immunofluorescence
Assay type: in vivo, rabbit
Conditions: rabbits, 50 mg/kg i.v. 4 days, 30 min ischemia, 3 h reperfusion; p<0.05
Procedure: The immunofluorescent method for detection of CRP was performed essentially as described previously (Lauver et al., 2005). Briefly, tissue samples used for infarct size determination were fixed in 10% buffered formalin immediately after the completion of the experimental protocol. The tissue samples were embedded in paraffin blocks and cut into sections of 2 μm in thickness, which were then mounted on glass slides. Two consecutive sections (mirror images) from a single heart slice were mounted on each slide. The slides were deparaffinized and subjected to antigen unmasking using a commercially available kit for this purpose (Vector Laboratories, Burlingame, Calif.). After blocking for 30 minutes, primary antibodies were incubated at room temperature in a humidity chamber for 45 minutes. One section per slide was incubated with a chicken anti-rabbit CRP antibody (5 μg/ml final concentration, Strategic BioSolutions, Newark, Del.) and the other section was incubated with a chicken anti-rabbit MAC antibody (1:2500 final dilution, developed in conjunction with Lampire Biological Laboratories, Pipersville, Pa.). […] Images were analyzed using IP Lab (Scanalytics, Inc., Fairfax, Va.) software to determine mean fluorescence intensity per heart section. […]

CC1=C(/C=C/C(C)=C/C=C/C(C)=C/C=C/C=C(C)/C=C/C=C(C)/C=C/C2=C(C)C(=O)C(OC(=O)CCC(=O)O)CC2(C)C)C(C)(C)CC(OC(=O)CCC(=O)O)C1=O (stereo not shown) [DDA, disodium disuccinate astaxanthin]
CRP deposition in infarct region (fluorescence intensity) versus saline: significantly reduced fluorescence
